According to PMC3471904 (PLoS ONE, 2012):
In brackets after ≈: the same amount, converted by molar mass. Several values for one entry are separate records, joined by “and”; a condition that tells them apart may be missing. Equal entries are not always repeated. Entries after “also recorded” stand apart in the source; their conditions may differ. Where two headings read alike, the source gives them in different places.

Tests used:
[1] = tested on: F. novicida; set-up: species or system Galleria mellonella; conditions: in vivo
[2] = tested on: intracellular F. novicida in A549 human alveolar epithelial cells; assay: microbe, parasite or virus in culture; assay type: cell-based
[3] = tested on: F. novicida glpT mutant; assay type: cell-based
[4] = tested on: intracellular F. novicida glpT mutant in A549 cells; assay type: cell-based
[5] = tested on: human lung epithelial A549 cells
[6] = tested on: intracellular F. novicida in RAW264.7 mouse macrophages; assay type: cell-based
[7] = tested on: mouse macrophage RAW264.7 cells
[8] = tested on: Wild-type F. novicida; assay: microbe, parasite or virus in culture; assay type: cell-based; conditions: for inhibition at 1000 µM: read-out: Inhibition of growth
[9] = tested on: M. tuberculosis whole cells; conditions: cited from earlier work
[10] = target: F. tularensis LVS DXR (Francisella tularensis subsp. holarctica, UniProt Q2A4P9); assay: biochemical
Chain of F. tularensis LVS DXR (Q2A4P9 whole entry, looked up): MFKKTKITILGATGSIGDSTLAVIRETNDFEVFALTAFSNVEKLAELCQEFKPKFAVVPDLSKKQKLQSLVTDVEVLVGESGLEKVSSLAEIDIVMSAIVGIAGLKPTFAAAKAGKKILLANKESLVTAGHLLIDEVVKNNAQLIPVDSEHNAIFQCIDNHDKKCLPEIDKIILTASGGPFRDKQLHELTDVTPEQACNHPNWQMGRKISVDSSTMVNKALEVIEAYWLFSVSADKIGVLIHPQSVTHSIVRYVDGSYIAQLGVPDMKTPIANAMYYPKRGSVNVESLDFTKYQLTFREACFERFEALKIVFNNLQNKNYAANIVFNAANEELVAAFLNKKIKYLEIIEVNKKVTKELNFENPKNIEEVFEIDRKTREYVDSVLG

[11] = mouse, in vivo; cited from earlier work
[12] = tested on: DXR of E. coli; conditions: cited from earlier work
[13] = tested on: DXR from M. tuberculosis; conditions: read-out: half maximal activity against DXR; cited from earlier work
[14] = Francisella tularensis, A549, 20 h, read-out: Inhibition of intracellular growth

Compound	Mean time to death ([1]; 30 mg/kg)	inhibition at 250 µM [2, 14]	MIC [3]	Percent inhibition of growth (OD600 treated vs untreated) [3]	Effect on intracellular glpT mutant replication [4]	Cytotoxicity by LDH release [5]	Intracellular F. novicida remaining [6]	Cytotoxicity by LDH release [7]	EC50 [8]	Percent inhibition of growth (OD600 treated vs untreated) [8]	EC50 ([8]; Francisella tularensis)	MIC ([8]; Francisella tularensis, 48 h)	Effect on whole cells [9]	Intracellular F. novicida remaining [2]	Well tolerated dose [11]	inhibition at 1000 µM ([8]; Francisella tularensis)	also measured
O=C(O)c1cn(C2CC2)c2cc(N3CCNCC3)c(F)cc2c1=O [Ciprofloxacin]																	Mean time to death ([1]; 20 mg/kg): 103 h
CC(=O)N(O)CCCP(=O)(OC(C)OC(=O)c1ccccc1)OC(C)OC(=O)c1ccccc1 (stereo not drawn) [Compound 1]	93 h	97 ± 0.8%	0.2 mM (≈ 98.7 µg/mL)	100%	susceptible; also recorded: significant effect	did not induce cytotoxicity	1.68±0.28 ×10^5 CFU/well and 0.92±0.18 ×10^5 CFU/well	did not induce cytotoxicity	45.2 ± 3.7 µM	100%	45 µM	202 µM (≈ 99.7 µg/mL)					inhibition at 400 µM [2, 14]: 99 ± 0.7%; Intracellular glpT mutant remaining [4]: 22.32±2.23 ×10^3 CFU/well
CCCCCCOP(=O)(CCCN(O)C(C)=O)OCCCCCC [Compound 2]			>1 mM	11±7%						27±14%	481 ± 44 µM	1090 µM (≈ 400 µg/mL)					MIC ([8]; Francisella tularensis): 1100 µM (≈ 402 µg/mL)
CCOP(=O)(CCCN(O)C(C)=O)OCC [Compound 3]																	Inhibition of F. novicida (result in words) [8]: did not effectively inhibit; also recorded: ineffective
CC(=O)N(O)CCCP(=O)(O)O [FR900098]	84 h	86 ± 6%	>1 mM	55±5%	not affected; also recorded: no effect	did not induce cytotoxicity		did not induce cytotoxicity	23.2 ± 1.2 µM	97.1±0.8%	23 µM	254 µM (≈ 50.1 µg/mL)	no effect on whole cells	0.56±0.26 ×10^3 CFU/well and 0.59±0.40 ×10^3 CFU/well	up to 300 mg/kg	100%	IC50 [10]: 230 nM; Inhibition of intracellular growth [2]: 85±10%; IC50 ([12]; read-out: IC50 against the DXR of E. coli): 62 nM
O=CN(O)CCCP(=O)(O)O [Fosmidomycin]	102 h	98 ± 0.7%	>1 mM	did not inhibit the growth of the glpT mutant at all	not affected; also recorded: no effect	did not induce cytotoxicity	0.93±0.20 ×10^5 CFU/well	did not induce cytotoxicity	3.6 ± 0.2 µM	99.6±0.2%	3.5 µM	136 µM (≈ 24.9 µg/mL)	no effect on whole cells	0.07±0.03 ×10^3 CFU/well	up to 300 mg/kg	100%	IC50 [13]: 310 nM; Reduction of intracellular bacteria [2]: 2 log; Inhibition of growth [3]: not able to inhibit F. novicida glpT growth at all; also recorded: completely resistant; IC50 ([12]; read-out: half maximal activity against DXR): 35 nM
